Data on 26 compounds can be found in patent publication US11760752B2, “Carboxylic acid, acyl sulfonamide and acyl sulfamide-derivatized bicyclic aza-heteroaromatics as selective Mcl-1 inhibitors and as dual Mcl-1/Bcl-2 inhibitors” (University of Maryland, Baltimore, priority 2019, dated 2023).

The target of one assay is BCL-2 (Homo sapiens (Human), UniProt P10415). Briefly: Fluorescence polarization competition assay (FPCA), displacement of FITC-Bak from BCL-2. The format is binding. How it is done: (§1) These values were determined from a fluorescence polarization competition assay involving a fluorescently labeled peptide (BAK) bound to the desired Bcl-2 anti-apoptotic protein. […] These inhibition constants are the concentrations at which the indazole derivatives can displace 50% of BAK from the indicated Bcl-2 anti-apoptotic proteins.
Chain of BCL-2 (P10415 1-211): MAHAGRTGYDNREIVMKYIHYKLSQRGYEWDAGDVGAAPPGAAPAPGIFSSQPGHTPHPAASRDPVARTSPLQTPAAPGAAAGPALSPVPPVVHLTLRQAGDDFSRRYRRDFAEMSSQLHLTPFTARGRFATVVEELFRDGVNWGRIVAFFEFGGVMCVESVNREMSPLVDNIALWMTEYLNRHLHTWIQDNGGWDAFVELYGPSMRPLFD
(§2) The concentrated peptide stocks were prepared in DMSO and the concentration of the peptide was determined in water at pH 8.0 using the extinction coefficient for amide-linked FITC of λ494=68,000 cm^−1M^−1.
(§3) The fluorescence polarization assays were performed in 96 well polypropylene F-bottom black microplates (Greiner Bio-One) with a final volume of 100 μL.
(§4) The fluorescence polarization competition assays were setup using a Biomek FXP Automated Liquid Handling System. […] The IC50 values were then converted to Ki values using an equation derived by Nikolovska-Coleska et al. All inhibitors were tested in triplicate.
In general terms: In fluorescence polarisation assays a small probe gives low polarisation when free and higher when bound to something large.

The target of assay [1] is T1, BCL-XL (Homo sapiens (Human), UniProt Q07817). Briefly: Fluorescence polarization competition assay (FPCA), displacement of FITC-Bak from BCL-XL. Format: binding. How it is done:
as §1, §2, §3, §4
Target sequence in this assay (Q07817 1-212): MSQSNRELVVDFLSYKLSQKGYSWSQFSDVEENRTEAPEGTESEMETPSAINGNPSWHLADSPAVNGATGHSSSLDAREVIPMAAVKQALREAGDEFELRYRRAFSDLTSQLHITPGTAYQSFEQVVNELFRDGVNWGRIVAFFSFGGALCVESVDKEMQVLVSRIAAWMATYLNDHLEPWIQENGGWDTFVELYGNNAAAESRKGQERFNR

For the next assay, the target named is MCL-1 (Homo sapiens (Human), UniProt Q07820). Briefly: Fluorescence polarization competition assay (FPCA), displacement of FITC-Bak from MCL-1. The format is binding.
Chain of MCL-1 (Q07820 172-327): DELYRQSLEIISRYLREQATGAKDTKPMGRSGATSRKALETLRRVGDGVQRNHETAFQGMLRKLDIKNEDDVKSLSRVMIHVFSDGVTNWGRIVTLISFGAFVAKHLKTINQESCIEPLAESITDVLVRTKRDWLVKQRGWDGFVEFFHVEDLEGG
Assay [2] deals with T1, BCL-XL. The conditions noted are these: relative to BCL-2; cited from earlier work.
Target sequence in this assay (Q07817 whole entry, species assumed): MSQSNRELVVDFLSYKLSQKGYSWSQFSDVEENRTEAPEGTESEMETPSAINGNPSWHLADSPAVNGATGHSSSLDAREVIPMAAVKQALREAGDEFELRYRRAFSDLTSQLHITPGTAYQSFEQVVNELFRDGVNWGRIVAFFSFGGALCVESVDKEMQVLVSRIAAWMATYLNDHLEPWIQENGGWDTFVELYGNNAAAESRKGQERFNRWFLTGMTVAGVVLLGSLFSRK
[3] abbreviates: Table 3, FITC-Bak peptide displacement, read-out: MCL-1 Affinity Ki.
The mark [4] stands for this setting: Table 3, FITC-Bak peptide displacement, read-out: BCL-2 Affinity Ki.
Where [5] appears, read: Table 3, FITC-Bak peptide displacement, read-out: BCL-XL Affinity Ki.
Where [6] appears, read: Table 5, heterocyclic core SAR, read-out: MCL-1 Ki.
Where [7] appears, read: Table 8, N-1-alkylated isomers, read-out: BCL-2 Ki.

Molecules are shown by their SMILES. Like-named read-outs stand apart in the source and are kept apart here.

Take `Cc1cc(OCCCc2c(C(=O)O)n(C)c3cc(Cl)ccc23)cc(C)c1Cl`: the Ki (as a rule, a measure of affinity in units of concentration, obtained from inhibition or displacement) is > 10000 nM on BCL-2 (Table 4, FPCA data for control compounds, read-out: BCL-2 Ki) and 1200 ± 160 nM on BCL-XL [1] (Table 4, FPCA data for control compounds, read-out: BCL-XL Ki).
`Cc1cc(OCCCn2nc(C(=O)O)c3cc(Cl)ccc32)cc(C)c1Cl` [BD-3-173]: the Ki at BCL-2 (read-out: BCL-2 Affinity Ki) amounted to 5790 ± 620 nM; on MCL-1 (setting [3]), 5800 ± 360 nM.
For `Cc1cc(OCCCn2nc(C(=O)NS(=O)(=O)c3ccc(NCc4ccco4)c([N+](=O)[O-])c3)c3cc(Cl)ccc32)cc(C)c1Cl` [BD-3-180], the Ki at BCL-2 (setting [4]) stood at 572 ± 50 nM; at BCL-XL [1] (setting [5]), 597 ± 180 nM; on MCL-1 (setting [3]), 480 ± 30 nM.
The corresponding values for `Cc1cc(OCCCn2nc(C(=O)NS(=O)(=O)c3ccc(NCc4cccnc4)c([N+](=O)[O-])c3)c3cc(Cl)ccc32)cc(C)c1Cl` [BD-3-181] are 694 ± 90 nM, 574 ± 110 nM and 840 ± 50 nM.
As to `Cc1cc(OCCCn2nc(C(=O)NS(=O)(=O)c3ccc(N4CCOCC4)c([N+](=O)[O-])c3)c3cc(Cl)ccc32)cc(C)c1Cl` [BD-3-183], the figures for the Ki at BCL-2 (setting [4]), on BCL-XL [1] (setting [5]) and on MCL-1 (setting [3]) were 868 ± 130 nM, 1060 ± 340 nM and 920 ± 30 nM, respectively.
The corresponding values for `Cc1cc(OCCCn2nc(C(=O)NS(=O)(=O)c3ccc(NCC4CCCO4)c([N+](=O)[O-])c3)c3cc(Cl)ccc32)cc(C)c1Cl` (stereo not drawn) [BD-3-184] are 1170 ± 160 nM, 840 ± 140 nM and 690 ± 30 nM.
As to `Cc1cc(OCCCn2nc(C(=O)NS(=O)(=O)c3ccc(NCC4CCN(C)CC4)c([N+](=O)[O-])c3)c3cc(Cl)ccc32)cc(C)c1Cl` [BD-3-190], the Ki at BCL-2 (read-out: BCL-2 Affinity Ki) came to 8930 ± 290 nM.
Consider `Cc1cc(Oc2ccc(Cn3nc(C(=O)NS(=O)(=O)c4ccc([N+](=O)[O-])c(N5CCOCC5)c4)c4cc(Cl)ccc43)cc2)cc(C)c1Cl` [CG-1-016], for which the Ki on BCL-2 (setting [4]) stood at 451 ± 40 nM; on BCL-XL [1] (setting [5]), 436 ± 70 nM; on MCL-1 (setting [3]), 370 ± 20 nM.
The corresponding values for `Cc1cc(Oc2ccc(Cn3nc(C(=O)NS(=O)(=O)c4ccc([N+](=O)[O-])c(NCc5cccnc5)c4)c4cc(Cl)ccc43)cc2)cc(C)c1Cl` [CG-1-018] are 384 ± 30 nM, 436 ± 70 nM and 480 ± 30 nM.
On to `Cc1cc(Oc2ccc(Cn3nc(C(=O)NS(=O)(=O)c4ccc([N+](=O)[O-])c(NCc5ccco5)c4)c4cc(Cl)ccc43)cc2)cc(C)c1Cl` [CG-1-019], for which the values for the Ki at BCL-2 (setting [4]), at BCL-XL [1] (setting [5]) and on MCL-1 (setting [3]) were 384 ± 30 nM, 325 ± 50 nM and 1140 ± 50 nM, respectively.
As to `CCN1CCN(c2cc(S(=O)(=O)NC(=O)c3nn(Cc4ccc(Oc5cc(C)c(Cl)c(C)c5)cc4)c4ccc(Cl)cc34)ccc2[N+](=O)[O-])CC1` [CG-1-023], the Ki is 74300 ± 11500 nM on BCL-2 (read-out: BCL-2 Affinity Ki) and 12400 ± 370 nM on MCL-1 (setting [3]).
For the compound `Cc1cc(Oc2ccc(Cn3nc(C(=O)O)c4cc(Cl)ccc43)cc2)cc(C)c1Cl` [NB-1-070], the Ki at BCL-2 (read-out: BCL-2 Affinity Ki) was 1040 ± 190 nM; at BCL-XL [1] (read-out: BCL-XL Affinity Ki) it was 2010 ± 350 nM; on MCL-1 (setting [3]), 910 ± 50 nM.
`Cc1cc(Oc2ccc(Cn3nc(C(=O)NS(=O)(=O)c4ccc(Cl)cc4)c4cc(Cl)ccc43)cc2)cc(C)c1Cl` [NB-1-084]: the Ki at BCL-2 (setting [4]) amounted to 1090 ± 450 nM; at BCL-XL [1] (setting [5]), 840 ± 228 nM; on MCL-1 (setting [3]) it was 280 ± 10 nM.
Consider `Cc1cc(Oc2ccc(Cn3nc(C(=O)NS(=O)(=O)c4ccc(N5CCOCC5)c([N+](=O)[O-])c4)c4cc(Cl)ccc43)cc2)cc(C)c1Cl` [NB-1-086], for which the results for the Ki on BCL-2 (read-out: BCL-2 Affinity Ki), at BCL-XL [1] (read-out: BCL-XL Affinity Ki) and at MCL-1 (setting [3]) were 569 ± 40 nM, 840 ± 228 nM and 320 ± 10 nM, respectively.
On to `Cc1cc(Oc2ccc(Cn3nc(C(=O)NS(=O)(=O)c4ccc(NCc5cccnc5)c([N+](=O)[O-])c4)c4cc(Cl)ccc43)cc2)cc(C)c1Cl` [NB-1-087], for which the Ki at BCL-2 (read-out: BCL-2 Affinity Ki) turned out to be 611 ± 200 nM; at BCL-XL [1] (read-out: BCL-XL Affinity Ki) it was 557 ± 80 nM; on MCL-1 (setting [3]), 520 ± 30 nM.
Regarding `Cc1cc(Oc2ccc(Cn3nc(C(=O)NS(=O)(=O)c4ccc(NCCN5CCOCC5)c([N+](=O)[O-])c4)c4cc(Cl)ccc43)cc2)cc(C)c1Cl` [NB-1-088], the Ki at BCL-2 (read-out: BCL-2 Affinity Ki) came out at 738 ± 190 nM; on MCL-1 (setting [3]), 750 ± 60 nM.
As to `Cc1cc(Oc2ccc(Cn3nc(C(=O)NS(=O)(=O)c4ccc(NCc5ccco5)c([N+](=O)[O-])c4)c4cc(Cl)ccc43)cc2)cc(C)c1Cl` [NB-1-089], the Ki on BCL-2 (setting [4]) was 266 ± 20 nM; on BCL-XL [1] (setting [5]), 551 ± 70 nM; on MCL-1 (setting [3]), 260 ± 10 nM.
With `Cc1cc(OCCCn2c(C(=O)O)nc3ccccc32)cc(C)c1Cl` [compound 5, 1-(3-(4-chloro-3,5-dimethylphenoxy)propyl)-1H-benzo[d]imidazole-2-carboxylic acid], the inhibition constant (Ki) at MCL-1 (setting [6]) and at MCL-1 (read-out: MCL-1 Ki) was > 10000 nM each time.
As for `Cc1cc(OCCCn2nc3ccc(Cl)cc3c2C(=O)O)cc(C)c1Cl` [compound 10, 5-chloro-2-(3-(4-chloro-3,5-dimethylphenoxy)propyl)-2H-indazole-3-carboxylic acid], the Ki at MCL-1 (setting [6]) and at MCL-1 (read-out: MCL-1 Ki) was > 10000 nM each time.
Regarding `Cc1cc(OCCn2nc3ccc(Cl)cc3c2C(=O)O)cc(C)c1Cl` [compound 11, 5-chloro-2-(2-(4-chloro-3,5-dimethylphenoxy)ethyl)-2H-indazole-3-carboxylic acid], the Ki on MCL-1 (setting [6]) and at MCL-1 (read-out: MCL-1 Ki) was > 10000 nM throughout.
With `Cc1cc(Oc2ccc(Cn3nc4ccc(Cl)cc4c3C(=O)O)cc2)cc(C)c1Cl` [compound 12, 5-chloro-2-(4-(4-chloro-3,5-dimethylphenoxy)benzyl)-2H-indazole-3-carboxylic acid], the results for the Ki at BCL-2 (read-out: BCL-2 Ki), on MCL-1 (setting [6]) and at MCL-1 (read-out: MCL-1 Ki) were 1450 ± 75 nM, 2360 ± 290 nM and 2360 ± 290 nM, respectively.
For `Cc1cc(Oc2ccc(Cn3nc4cc(Cl)ccc4c3C(=O)O)cc2)cc(C)c1Cl` [compound 49, 6-chloro-2-(4-(4-chloro-3,5-dimethylphenoxy)benzyl)-2H-indazole-3-carboxylic acid], the Ki at MCL-1 (setting [6]) and at MCL-1 (read-out: MCL-1 Ki) was 1760 ± 550 nM in each case.
Regarding `Cc1cc(Oc2ccc(Cn3nc(C(=O)O)c4cc(Cl)ccc43)cc2)cc(C)c1Cl` [compound 50, 5-chloro-1-(4-(4-chloro-3,5-dimethylphenoxy)benzyl)-1H-indazole-3-carboxylic acid], the Ki on MCL-1 (Table 8, N-1-alkylated isomers, read-out: MCL-1 Ki) was found to be 1580 ± 360 nM.
With `Cc1cc(Oc2ccc(Cn3nc(C(=O)NS(=O)(=O)c4ccc(N5CCOCC5)c([N+](=O)[O-])c4)c4cc(Cl)ccc43)cc2)cc(C)c1Cl` [compound 51, 5-chloro-1-(4-(4-chloro-3,5-dimethylphenoxy)benzyl)-N-((4-morpholino-3-nitrophenyl)sulfonyl)-1H-indazole-3-carboxamide], the “BCL-2 binding affinity (in words)” value on BCL-2 is on record as “within the nanomolar range”. The Ki was 620 ± 120 nM at BCL-2 (setting [7]) and 2220 ± 200 nM on MCL-1. For the same compound, the “BCL-XL affinity (in words)” value at BCL-XL [1] was “no affinity”.
In the case of `Cc1cc(Oc2ccc(Cn3nc(C(=O)NS(=O)(=O)c4ccc(NCc5cccnc5)c([N+](=O)[O-])c4)c4cc(Cl)ccc43)cc2)cc(C)c1Cl` [compound 52, 5-chloro-1-(4-(4-chloro-3,5-dimethylphenoxy)benzyl)-N-((3-nitro-4-((pyridin-3-ylmethyl)amino)phenyl)sulfonyl)-1H-indazole-3-carboxamide], the “BCL-2 binding affinity (in words)” value at BCL-2 is on record as “within the nanomolar range”. In addition, the Ki was 690 ± 110 nM on BCL-2 (setting [7]) and > 10000 nM on MCL-1. Also, the “BCL-XL affinity (in words)” value on BCL-XL [1] is “no affinity”.
`CC1(C)CCC(CN2CCN(c3ccc(C(=O)NS(=O)(=O)c4ccc(NCC5CCOCC5)c([N+](=O)[O-])c4)c(Oc4cnc5[nH]ccc5c4)c3)CC2)=C(c2ccc(Cl)cc2)C1` [venetoclax, Venetoclax]: the “BCL-XL affinity, fold lower than BCL-2” value on BCL-XL [2] was “more than 100 fold”.
